Experimental data as given in the NIST ThermoML archive (doi:10.1016/j.tca.2010.07.032).
Values joined by “and” are separate entries in the source; they are usually repeats but may differ in a detail not shown here. Equal values may be shown once. ± gives the expanded uncertainty stated by the source.

Conditions: Liquid; Temperature-Programmed Gas Chromatography

Row | Structure (SMILES) | Normal boiling temperature
1 | CCOP(=O)(OCC)OCC [ethyl phosphate] | 215.89 ± 22 °C and 216.34 ± 22 °C
2 | CCCC(C)OP(=O)(OC(C)CCC)OC(C)CCC (stereo not drawn) [tri-sec-amyl phosphate] | 282.02 ± 28 °C and 282.74 ± 28 °C
3 | CCC(C)OP(=O)(OC(C)CC)OC(C)CC (stereo not drawn) [tri-sec-butyl phosphate] | 260.80 ± 26 °C and 261.06 ± 26 °C
4 | CCCCCCOP(=O)(OCCCCCC)OCCCCCC [trihexyl phosphate] | 366.12 ± 37 °C and 365.02 ± 36 °C
5 | CC(C)COP(=O)(OCC(C)C)OCC(C)C [triisobutyl phosphate] | 264.67 ± 26 °C and 265.70 ± 27 °C
6 | CC(C)CCOP(=O)(OCCC(C)C)OCCC(C)C [triisopentyl phosphate] | 302.29 ± 30 °C and 302.37 ± 30 °C
7 | COP(=O)(OC)OC [trimethyl orthophosphate] | 195.06 ± 20 °C and 194.97 ± 20 °C
8 | CCCCCOP(=O)(OCCCCC)OCCCCC [tripentyl phosphate] | 323.21 ± 32 °C and 326.62 ± 33 °C
